Like-named read-outs stand apart in the source and are kept apart here.
Tests used:
[1] = tested on: HL60 (human promyelocytic leukemia) cells; assay: WST-1 cell proliferation assay, HL60; assay type: cell-based
Procedure: (§1) The HL60NCR resistant cell line has been characterized with over-expression of the multidrug resistant protein (MDR; p-glycoprotein). The over-expression ratio (level of MDR in resistant cell line over level of MDR in the parental cell line) is 8 fold with a 10 fold increase in pgp function. Pgp surface expression was measured by flow cytometry with the MRK16 antibody and Pgp function with the generic substrate, Rh123.
(§2) WST-1 is a water-soluble tetrazolium salt that can be used for cell proliferation or cell viability assays. The rate of WST-1 cleavage by mitochondrial dehydrogenases correlates with the number of viable cells in the culture. WST-1 is added directly to the cells ( 1/10th of the culture volume) and absorbance at 450 nm can be measured using an ELISA plate reader following a short incubation at 37° C.

[2] = tested on: secondary AML patient sample cells; assay: Drug transport (CsA modulation of uptake) in secondary AML patient cells; assay type: cell-based, human; settings: for increase of uptake by Cyclosporin A, mean value: 22 secondary AML samples; for CsA Modulation of Uptake: D-value; for number of patient samples with uptake increased by ≧10% by Cyclosporin A: of 22 secondary AML samples
Procedure: The expression and function of Pgp, MRP-1 and BCRP was measured in cells collected from patients with secondary AML. Pgp, MRP-1 and BCRP expression was measured by flow cytometry with the MRK16, MRPm6 and BXP21 antibodies, and function by modulation of uptake of the fluorescent substrates DiOC2(3), rhodamine-123 and pheophorbide A by PSC-833, MK571 and FTC, respectively, all measured by the Kolmogorov-Smirnov statistic, generating D-values.

[3] = tested on: pretreatment secondary AML patient cells; assay: Amonafide and daunorubicin efflux in cryopreserved cells of patients treated with amonafide+cytarabine; assay type: cell-based, human; settings: cells from 15 patients treated with amonafide+cytarabine
Procedure: Cryopreserved cells were tested for viability and samples with viabilities less than 40% were considered inevaluable and discarded.
To measure drug uptake, the substrates were incubated with cells in medium containing each drug alone, or in combination with the modulator at the desired final concentrations. Cells were then washed and resuspended in PBS, and placed on ice. Drug-associated fluorescence was measured by flow cytometry using a FacScan flow cytometer (Becton Dickinson Immunocytometry Systems, San Jose, Calif.) equipped in standard fashion with an Argon laser for 488 nm excitation and a 585/42 band-pass filter (FL2) or a 670 long-pass (FL3) filter for emission collection. Data were analyzed with WinList software (Verity Software House, Topsham, Me.).

[4] = tested on: HL60/VCR (HL60/MDR), a cell line selected for resistance to vincristine; assay: WST-1 cell proliferation assay, HL60/VCR; settings: for IC50: Homo sapiens, HL60/VCR, read-out: IC50 HL60/MDR; for Fold Change in IC50: HL60/MDR vs HL60
Procedure: as §1, §2

[5] = tested on: 8226/MR20, a cell line selected for resistance to mitoxantrone (BCRP); assay: WST-1 cell proliferation assay, 8226/MR20; settings: 8226/MR20 vs 8226
Procedure: The 8226/MR20 resistant cell line has been characterized with over-expression of the multidrug resistant protein (BCRP).
BCRP surface expression was measured by flow cytometry with the BXP21 antibody.
as §2

[6] = tested on: K562 cells (Pgp negative); assay: Functional efflux assay (DiOC2), K562; assay type: cell-based, human; settings: K562, flow cytometry
Procedure: The cells were washed with PBS and resuspended in medium. An aliquot was taken for cytometric quantitation of baseline dye uptake. The remaining samples were incubated again either with or without CSA and resuspended in fresh, chilled medium in order to assess dye efflux also by flow cytometric analysis. Functional expression analyses of Pgp were performed on a BD FACSCalibur flow cytometer (Franklin Lakes, N.J.). Cellular amonafide content was measured on the Cytopeia Influx flow cytometer (Seattle, Wash.). Data analysis was performed using the Dako Cytomation Summit software, version 4.0 (Fort Collins, Colo.). […] Differential Pgp staining of anti-Pgp treated cells was compared to that of control cells counted with the same number of gated events. […] These analyses were performed using the NCSS 2007 software (Kaysville, Utah). This approach addresses the maximum difference between two empirical distribution functions.

[7] = target: T1, Pgp (Homo sapiens, UniProt P08183); settings: human, Caco-2
T1 sequence (P08183 whole entry): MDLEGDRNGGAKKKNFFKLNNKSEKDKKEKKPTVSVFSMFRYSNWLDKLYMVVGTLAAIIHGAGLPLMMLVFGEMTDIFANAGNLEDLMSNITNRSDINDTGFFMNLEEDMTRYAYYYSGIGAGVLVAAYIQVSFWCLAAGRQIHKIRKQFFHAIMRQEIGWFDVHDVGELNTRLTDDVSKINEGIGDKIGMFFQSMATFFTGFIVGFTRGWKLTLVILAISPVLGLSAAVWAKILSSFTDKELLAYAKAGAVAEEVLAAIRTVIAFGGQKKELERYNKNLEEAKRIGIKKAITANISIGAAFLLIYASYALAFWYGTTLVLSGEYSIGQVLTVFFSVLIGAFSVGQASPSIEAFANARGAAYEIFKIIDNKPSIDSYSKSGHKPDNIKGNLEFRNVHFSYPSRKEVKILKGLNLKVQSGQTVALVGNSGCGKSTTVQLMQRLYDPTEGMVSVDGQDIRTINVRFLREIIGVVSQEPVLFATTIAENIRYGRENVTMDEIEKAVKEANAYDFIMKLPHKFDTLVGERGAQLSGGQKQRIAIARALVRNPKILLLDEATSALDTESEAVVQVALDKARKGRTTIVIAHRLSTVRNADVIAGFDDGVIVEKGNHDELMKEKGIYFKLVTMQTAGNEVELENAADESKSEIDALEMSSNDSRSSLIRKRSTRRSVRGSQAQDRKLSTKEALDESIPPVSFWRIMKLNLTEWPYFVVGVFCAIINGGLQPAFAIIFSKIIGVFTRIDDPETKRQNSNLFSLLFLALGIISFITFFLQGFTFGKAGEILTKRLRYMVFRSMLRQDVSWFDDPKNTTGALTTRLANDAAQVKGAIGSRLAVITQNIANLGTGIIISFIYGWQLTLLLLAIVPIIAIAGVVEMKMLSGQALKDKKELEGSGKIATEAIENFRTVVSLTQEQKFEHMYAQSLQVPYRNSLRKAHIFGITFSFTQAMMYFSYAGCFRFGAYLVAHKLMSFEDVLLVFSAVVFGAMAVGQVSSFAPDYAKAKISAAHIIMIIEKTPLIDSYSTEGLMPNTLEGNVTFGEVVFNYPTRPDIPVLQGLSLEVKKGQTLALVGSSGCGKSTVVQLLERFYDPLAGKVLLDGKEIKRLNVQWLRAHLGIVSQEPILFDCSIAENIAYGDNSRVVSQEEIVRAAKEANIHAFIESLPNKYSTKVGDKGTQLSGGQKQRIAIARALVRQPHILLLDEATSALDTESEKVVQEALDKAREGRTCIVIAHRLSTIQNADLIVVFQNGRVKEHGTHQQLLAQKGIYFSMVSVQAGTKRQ
From the text: (§3) Both the Caco-2 and MDR1-MDCK cells were used for this model.

[8] = target: T1, Pgp; settings: human, MDCK-MDR1
From the text: MDR1-MDCK are Madin Darby Canine Kidney cells transfected with the human multi-drug resistance gene. Confluent monolayers made from these cells can be used to access a test compound's potential role as a P-gp substrate. The assay set up is similar to the CaCo-2 assay.
as §3

[9] = tested on: IGROV1 (human ovarian) cell line; assay: SRB cell proliferation assay, IGROV1; assay type: cell-based; settings: read-out: IC50
Procedure: (§4) The T8 resistant cell line has been characterized with over-expression of the multidrug resistant protein BCRP (breast cancer resistance protein). Topotecan, which is a known substrate for BCRP, was used as a control.
(§5) Sulforhodamine-B (SRB) assay is performed to assess cell survival. SRB is a water-soluble dye that binds to the basic amino acids of the cellular proteins. Thus, colorimetric measurement of the bound dye provides an estimate of the total protein mass that is related to the cell number. The color can then be quantified using a simple colorimetric assay. The results can be read on a multiwell scanning spectrophotometer (ELISA reader).

[10] = tested on: IGROV1-T8, a cell line selected for resistance to topotecan (increased BCRP expression); settings: T8 resistant line vs IGROV1
Procedure: as §4, §5

[11] = tested on: IGROV1-T8, a cell line selected for resistance to topotecan (increased BCRP expression); assay: cells; settings: Homo sapiens, T8
Procedure: as §4, §5

[12] = HL-60, wild-type HL60, WST-1, read-out: IC50 HL60

Molecule: COc1cccc2c1C(=O)c1c(O)c3c(c(O)c1C2=O)C[C@@](O)(C(C)=O)C[C@@H]3O[C@H]1C[C@H](N)[C@H](O)[C@H](C)O1 [Daunorubicin, daunorubicin]
- IC50 ([1]; HL-60, read-out: IC50 HL60): 15 nM
- increase of uptake by Cyclosporin A, mean value [2]: 19.7%
- CsA Modulation of Uptake ([2]; Pt 1): 0.2
- CsA Modulation of Uptake ([2]; Pt 2): 0.14
- CsA Modulation of Uptake ([2]; Pt 3): 0.27
- CsA Modulation of Uptake ([2]; Pt 4): 0.23
- CsA Modulation of Uptake ([2]; Pt 5): 0
- CsA Modulation of Uptake ([2]; Pt 6): 0.41
- CsA Modulation of Uptake ([2]; Pt 7): 0.47
- CsA Modulation of Uptake ([2]; Pt 8): 0.31
- CsA Modulation of Uptake ([2]; Pt 9): 0.08
- CsA Modulation of Uptake ([2]; Pt 10): 0.08
- CsA Modulation of Uptake ([2]; Pt 11): 0.03
- CsA Modulation of Uptake ([2]; Pt 12): 0.37
- CsA Modulation of Uptake ([2]; Pt 13): 0.16
- CsA Modulation of Uptake ([2]; Pt 14): 0.29
- CsA Modulation of Uptake ([2]; Pt 15): 0.07
- CsA Modulation of Uptake ([2]; Pt 16): 0.08
- CsA Modulation of Uptake ([2]; Pt 17): 0.24
- CsA Modulation of Uptake ([2]; Pt 18): 0.03
- CsA Modulation of Uptake ([2]; Pt 19): 0.04
- CsA Modulation of Uptake ([2]; Pt 20): 0.35
- CsA Modulation of Uptake ([2]; Pt 21): 0.12
- CsA Modulation of Uptake ([2]; Pt 22): 0.43
- number of patient samples with uptake increased by ≧10% by Cyclosporin A [2]: 16 patient samples
- drug efflux in relation to clinical response (CR vs non-CR) [3]: negatively correlated with response
- loss of potency in the Pgp+ line ([4]; HL60/VCR vs HL60): 2 log units
- IC50 [4]: 92 nM
- loss of potency in the BCRP line [5]: ½

Molecule: CCN1/C(=C/C=C/c2oc3ccccc3[n+]2CC)Oc2ccccc21.[I-] [DiOC2]
- DiOC2 accumulation [6]: accumulated in Pgp negative K562 cells

Molecule: C[C@H]1O[C@@H](O[C@H]2[C@@H](O)C[C@H](O[C@H]3[C@@H](O)C[C@H](O[C@H]4CC[C@@]5(C)[C@H](CC[C@@H]6[C@@H]5C[C@@H](O)[C@]5(C)[C@@H](C7=CC(=O)OC7)CC[C@]65O)C4)O[C@@H]3C)O[C@@H]2C)C[C@H](O)[C@@H]1O [Digoxin, digoxin]
- Digoxin Efflux (efflux/influx ratio), Caco-2 [7]: 10.6 ± 1.4
- Digoxin Efflux (efflux/influx ratio), MDR1-MDCK [8]: 70 + 11

Molecule: COc1cccc2c1C(=O)c1c(O)c3c(c(O)c1C2=O)C[C@@](O)(C(=O)CO)C[C@@H]3O[C@H]1C[C@H](N)[C@H](O)[C@H](C)O1 [Doxorubicin, doxorubicin]
- IC50 [1, 12]: 33 nM
- Fold Change in IC50 [4]: 4.87
- IC50 [4]: 161 nM

Molecule: CC(=O)[C@]1(O)Cc2c(O)c3c(c(O)c2[C@@H](O[C@H]2C[C@H](N)[C@H](O)[C@H](C)O2)C1)C(=O)c1ccccc1C3=O [Idarubicin, idarubicin]
- increase of uptake by Cyclosporin A, mean value [2]: 7%
- CsA Modulation of Uptake ([2]; Pt 1): 0
- CsA Modulation of Uptake ([2]; Pt 2): 0.23
- CsA Modulation of Uptake ([2]; Pt 3): 0.22
- CsA Modulation of Uptake ([2]; Pt 4): 0.17
- CsA Modulation of Uptake ([2]; Pt 5): 0
- CsA Modulation of Uptake ([2]; Pt 6): 0.21
- CsA Modulation of Uptake ([2]; Pt 7): 0.21
- CsA Modulation of Uptake ([2]; Pt 8): 0.16
- CsA Modulation of Uptake ([2]; Pt 9): 0.18
- CsA Modulation of Uptake ([2]; Pt 10): 0.02
- CsA Modulation of Uptake ([2]; Pt 11): 0.05
- CsA Modulation of Uptake ([2]; Pt 12): 0.08
- CsA Modulation of Uptake ([2]; Pt 13): 0.06
- CsA Modulation of Uptake ([2]; Pt 14): 0.28
- CsA Modulation of Uptake ([2]; Pt 15): 0.16
- CsA Modulation of Uptake ([2]; Pt 16): 0.03
- CsA Modulation of Uptake ([2]; Pt 17): 0
- CsA Modulation of Uptake ([2]; Pt 18): 0
- CsA Modulation of Uptake ([2]; Pt 19): 0.17
- CsA Modulation of Uptake ([2]; Pt 20): 0.23
- CsA Modulation of Uptake ([2]; Pt 21): 0.19
- CsA Modulation of Uptake ([2]; Pt 22): 0.31
- number of patient samples with uptake increased by ≧10% by Cyclosporin A [2]: 12 patient samples

Molecule: O=C1c2c(O)ccc(O)c2C(=O)c2c(NCCNCCO)ccc(NCCNCCO)c21 [Mitoxantrone, mitoxantrone]
- IC50 [1, 12]: 8 nM
- Fold Change in IC50 [4]: 390.7
- IC50 [4]: 3110 nM

Molecule: CO[C@@H]1[C@H](N(C)C(=O)c2ccccc2)C[C@H]2O[C@]1(C)n1c3ccccc3c3c4c(c5c6ccccc6n2c5c31)C(=O)NC4 [PKC412]
- Digoxin Efflux (efflux/influx ratio), Caco-2 [7]: 1.8 ± 1.3
- Digoxin Efflux (efflux/influx ratio), MDR1-MDCK [8]: 6.4 ± 0.8

Molecule: CC[C@@]1(O)C(=O)OCc2c1cc1n(c2=O)Cc2cc3c(CN(C)C)c(O)ccc3nc2-1 [TPT, Topotecan]
- IC50 ([9]; IGROV-1, IGROV1, experiment (1)): 36 nM
- IC50 ([9]; IGROV-1, IGROV1, experiment (2)): 73.9 nM
- resistance of T8 line to Topotecan relative to Amonafide [10]: 10 fold
- IC50 ([11]; experiment (1)): 1100 nM
- IC50 ([11]; experiment (2)): 1090 nM

Molecule: amonafide L-malate
- increase of uptake by Cyclosporin A, mean value [2]: −2.5%
- CsA Modulation of Uptake ([2]; Pt 1): 0
- CsA Modulation of Uptake ([2]; Pt 2): 0.09
- CsA Modulation of Uptake ([2]; Pt 3): 0
- CsA Modulation of Uptake ([2]; Pt 4): 0.02
- CsA Modulation of Uptake ([2]; Pt 5): 0
- CsA Modulation of Uptake ([2]; Pt 6): 0.1
- CsA Modulation of Uptake ([2]; Pt 7): 0.31
- CsA Modulation of Uptake ([2]; Pt 8): 0.07
- CsA Modulation of Uptake ([2]; Pt 9): 0
- CsA Modulation of Uptake ([2]; Pt 10): 0.18
- CsA Modulation of Uptake ([2]; Pt 11): 0
- CsA Modulation of Uptake ([2]; Pt 12): 0
- CsA Modulation of Uptake ([2]; Pt 13): 0.03
- CsA Modulation of Uptake ([2]; Pt 14): 0.05
- CsA Modulation of Uptake ([2]; Pt 15): 0
- CsA Modulation of Uptake ([2]; Pt 16): 0
- CsA Modulation of Uptake ([2]; Pt 17): 0
- CsA Modulation of Uptake ([2]; Pt 18): 0
- CsA Modulation of Uptake ([2]; Pt 19): 0
- CsA Modulation of Uptake ([2]; Pt 20): 0.15
- CsA Modulation of Uptake ([2]; Pt 21): 0.43
- CsA Modulation of Uptake ([2]; Pt 22): 0
- substrate status for the MDR proteins expressed in AML cells ([2]; in relation to other topoisomerase 2 inhibitors): poor substrate
- number of patient samples with uptake increased by ≧10% by Cyclosporin A [2]: 5 patient samples
